Where two headings read alike, the source gives them in different places.
Experiments:
Type in all cases: cell-based, human
[1] = system: HeLa-APL; experiment: SRB colorimetric assay of cell growth and viability, HeLa-APL; conditions: 48 hours exposure; for CC50: read-out: LC50 HELA-APL
[2] = system: SK-MEL-28; experiment: SRB colorimetric assay of cell growth and viability, SK-MEL-28; conditions: 48 hours exposure; for CC50: read-out: LC50 MEL-28
[3] = system: HeLa; experiment: SRB colorimetric assay of cell growth and viability, HeLa; conditions: 48 hours exposure; for CC50: read-out: LC50 HELA
[4] = system: K-562; experiment: SRB colorimetric assay of cell growth and viability, K-562; conditions: 48 hours exposure; for CC50: read-out: LC50 K-562
[5] = system: A-549; experiment: SRB colorimetric assay of cell growth and viability, A-549; conditions: 48 hours exposure; for GI50: read-out: GI50 A-549; for CC50: read-out: LC50 A-549
[6] = system: LoVo; experiment: SRB colorimetric assay of cell growth and viability, LoVo; conditions: 48 hours exposure; for CC50: read-out: LC50 LOVO
[7] = system: PANC-1; experiment: SRB colorimetric assay of cell growth and viability, PANC-1; conditions: 48 hours exposure; for CC50: read-out: LC50 PANC-1
[8] = system: HT-29; experiment: SRB colorimetric assay of cell growth and viability, HT-29; conditions: 48 hours exposure; for GI50: read-out: GI50 HT-29; for CC50: read-out: LC50 HT-29
[9] = system: IGROV-ET; experiment: SRB colorimetric assay of cell growth and viability, IGROV-ET; conditions: 48 hours exposure; for CC50: read-out: LC50 IGROV-ET
[10] = system: SK-BR-3; experiment: SRB colorimetric assay of cell growth and viability, SK-BR-3; conditions: 48 hours exposure
[11] = system: LNCaP; experiment: SRB colorimetric assay of cell growth and viability, LNCaP; conditions: 48 hours exposure; for GI50: read-out: GI50 LN-caP; for CC50: read-out: LC50 LN-caP
[12] = system: DU-145; experiment: SRB colorimetric assay of cell growth and viability, DU-145; conditions: 48 hours exposure
[13] = system: LoVo-Dox; experiment: SRB colorimetric assay of cell growth and viability, LoVo-Dox; conditions: 48 hours exposure; for CC50: read-out: LC50 LOVO-DOX
Summary of the method: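 Here, cells grow drug-free for 18 h, then receive sample dilutions from 10 down to 10^−8 μg/mL for 48 h at 37° C. Protein-bound SRB is solubilized in Tris and quantified at 490 nm.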

[14] = system: IGROV-1; experiment: SRB colorimetric assay of cell growth and viability, IGROV-1; conditions: 48 hours exposure

C/C=C1\NC(=O)[C@H](Cc2ccccc2)NC(=O)[C@@H](C(C)C)NC(=O)[C@@H]([C@@H](C)CC)NC(=O)[C@H](NC(=O)[C@H](NC(=O)[C@H](CCCN)NC(=O)[C@H]2CCCN2C(=O)[C@H](NC(=O)[C@@H](NC(=O)[C@H](NC(=O)[C@H](NC(=O)CCCC(C)C)C(C)C)[C@H](C)O)C(C)C)C(C)C)[C@@H](C)CC)[C@@H](C)OC(=O)[C@H](C(C)C)NC1=O [Compound 7, [D-Thr^12]-KF]
GI50 [1]: ≥ 6.77 µM
TGI HELA-APL [1]: 6.77E−06 Molar
CC50 [1]: ≥ 6.77 µM
GI50 [2]: ≥ 6.77 µM
TGI MEL-28 [2]: 6.77E−06 Molar
CC50 [2]: ≥ 6.77 µM
GI50 [3]: ≥ 6.77 µM
TGI HELA [3]: 6.77E−06 Molar
CC50 [3]: ≥ 6.77 µM
GI50 [4]: ≥ 6.77 µM
TGI K-562 [4]: 6.77E−06 Molar
CC50 [4]: ≥ 6.77 µM
TGI A-549 [5]: 6.77E−06 Molar
GI50 [5]: ≥ 6.77 µM
CC50 [5]: ≥ 6.77 µM
GI50 [6]: ≥ 6.77 µM
TGI LOVO [6]: 6.77E−06 Molar
CC50 [6]: ≥ 6.77 µM
GI50 [7]: ≥ 6.77 µM
TGI PANC-1 [7]: 6.77E−06 Molar
CC50 [7]: ≥ 6.77 µM
TGI HT-29 [8]: 6.77E−06 Molar
GI50 [8]: ≥ 6.77 µM
CC50 [8]: ≥ 6.77 µM
GI50 [9]: ≥ 6.77 µM
TGI IGROV-ET [9]: 6.77E−06 Molar
CC50 [9]: ≥ 6.77 µM
GI50 [10]: ≥ 6.77 µM
LC50 [10]: ≥ 6.77 µM
TGI SK-BR-3 [10]: 6.77E−06 Molar
TGI LN-caP [11]: 6.77E−06 Molar
GI50 [11]: 6.04 µM
CC50 [11]: ≥ 6.77 µM
GI50 [12]: ≥ 6.77 µM
LC50 (concentration causing 50% net cell kill) [12]: ≥ 6.77 µM
TGI DU-145 [12]: 6.77E−06 Molar
GI50 [13]: 5.14 µM
TGI LOVO-DOX [13]: 6.77E−06 Molar
CC50 [13]: ≥ 6.77 µM
GI50 [14]: ≥ 6.77 µM
LC50 (concentration causing 50% net cell killing) [14]: ≥ 6.77 µM
TGI IGROV [14]: 6.77E−06 Molar

C/C=C1\NC(=O)[C@H](Cc2ccccc2)NC(=O)[C@@H](C(C)C)NC(=O)[C@@H]([C@@H](C)CC)NC(=O)[C@H](NC(=O)[C@H](NC(=O)[C@H](CCCNC(=O)C(F)(F)F)NC(=O)[C@H]2CCCN2C(=O)[C@H](NC(=O)[C@@H](NC(=O)[C@@H](NC(=O)[C@H](NC(=O)CC[C@@H](C)CC)C(C)C)[C@@H](C)O)C(C)C)C(C)C)[C@@H](C)CC)[C@@H](C)OC(=O)[C@H](C(C)C)NC1=O [Compound 96, [Orn(N^δTfa)^8, 4(S)MeHex^14]-Kahalalide F]
GI50 ([1]; SRB): 0.686 µM
TGI HELA-APL ([1]; SRB): 1.62E−06 Molar
CC50 ([1]; SRB): 3.82 µM
GI50 ([2]; SRB): 1.22 µM
TGI MEL-28 ([2]; SRB): 2.15E−06 Molar
CC50 ([2]; SRB): 3.77 µM
GI50 ([3]; SRB): 0.244 µM
TGI HELA ([3]; SRB): 7.24E−07 Molar
CC50 ([3]; SRB): 2.59 µM
GI50 ([4]; SRB): 4.5 µM
TGI K-562 ([4]; SRB): 6.35E−06 Molar
CC50 ([4]; SRB): 6.35 µM
TGI A-549 ([5]; SRB): 2.57E−06 Molar
GI50 ([5]; SRB): 1.26 µM
CC50 ([5]; SRB): 5.23 µM
GI50 ([6]; SRB): 0.14 µM
TGI LOVO ([6]; SRB): 2.64E−07 Molar
CC50 ([6]; SRB): 0.5 µM
GI50 ([7]; SRB): 6.04 µM
TGI PANC-1 ([7]; SRB): 6.35E−06 Molar
CC50 ([7]; SRB): 6.35 µM
TGI HT-29 ([8]; SRB): 2.11E−07 Molar
GI50 ([8]; SRB): 0.101 µM
CC50 ([8]; SRB): 0.442 µM
GI50 ([9]; SRB): 0.178 µM
TGI IGROV-ET ([9]; SRB): 3.32E−07 Molar
CC50 ([9]; SRB): 0.619 µM
GI50 ([10]; SRB): 0.0648 µM
LC50 ([10]; SRB): 0.56 µM
TGI SK-BR-3 ([10]; SRB): 1.91E−07 Molar
TGI LN-caP ([11]; SRB): 4.60E−06 Molar
GI50 ([11]; SRB): 1.73 µM
CC50 ([11]; SRB): 6.35 µM
GI50 ([12]; SRB): 0.985 µM
LC50 (concentration causing 50% net cell kill) ([12]; SRB): 3.81 µM
TGI DU-145 ([12]; SRB): 1.94E−06 Molar
GI50 ([13]; SRB): 0.153 µM
TGI LOVO-DOX ([13]; SRB): 2.93E−07 Molar
CC50 ([13]; SRB): 0.559 µM
GI50 ([14]; SRB): 0.184 µM
LC50 (concentration causing 50% net cell killing) ([14]; SRB): 0.607 µM
TGI IGROV ([14]; SRB): 3.34E−07 Molar
